The target of one test is Beta-nerve growth factor (Homo sapiens, UniProt P01138). Description: Inhibition of NGF binding to p75NTR.
Test [1] can be described thus: Inhibition of IL2 receptor binding to IL2 alpha receptor by scintillation proximity assay. (In general: Scintillation proximity formats need no separation of bound from free tracer.)

The text below walks through data of ChEMBL document CHEMBL2169777, “Chemical modulators working at pharmacological interface of target proteins” (Bioorg Med Chem, 2012).

By IC50 is commonly meant the concentration that inhibits the measured activity by half. Higher therefore signals lower potency. One may read the Ki as the equilibrium dissociation constant of an inhibitor or competing ligand from its target.

Sequence of Beta-nerve growth factor (P01138 122-241 limits assumed): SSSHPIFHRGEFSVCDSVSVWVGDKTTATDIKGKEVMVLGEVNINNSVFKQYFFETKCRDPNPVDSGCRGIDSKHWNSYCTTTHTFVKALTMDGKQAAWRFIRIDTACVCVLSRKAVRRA

On Beta-nerve growth factor, `Cc1cc2nc3c(=O)[nH]c(=O)nc-3n(C)c2cc1C=O` came in with a 50% inhibitory concentration (IC50) of 1000 nM.

`COC(=O)[C@H](Cc1ccc(C#Cc2ccccc2)cc1)NC(=O)C[C@H]1CCCN(C(=N)N)C1` returned an IC50 in test [1] of 3000 nM.

For the molecule `CC(C)C[C@@H](NC(=N)N)C(=O)NCC(=O)N1CCC(c2cc(-c3ccc(OCc4ccc(C(=O)O)o4)c(Cl)c3Cl)nn2C)CC1`, the Ki in test [1] is 60 nM.
